Columns and labels:
Lgr5-positive cells = experiment: Expansion of Lgr5-positive cells (cochlear stem cell expansion, 3D Matrigel culture, flow cytometry for Lgr5-GFP); format: cell-based, mouse; conditions: for EC50: Mus musculus, 240 h, Lgr5-positive cell expansion, cochlear cells of neonatal Lgr5-EGFP-IRES-Cre-ER mice, 10 days in culture, read-out: Potency; for % of Cells: percentage of Lgr5-GFP-positive cells after 10 days (D10) in culture, flow cytometer
Description: Lgr5-EGFP-IRES-Cre-ER mice (Barker et al., 2007) (http://jaxmice.jax.org/strain/008875.html) are used to analyze the effects of small molecules on cochlear stem cell expansion.
Isolation of stem cells from the inner ear: All animal studies are conducted under an approved institutional protocol according to National Institutes of Health guidelines. For experiments with neonatal mice (postnatal days 1-3), the cochleae are dissected in HBSS and the organ of Corti are separated from the stria vascularis and the modiolus. The organs of Corti are then treated with Cell Recovery Solution (Corning) for 1 h to separate cochlear epithelium from the underlying mesenchyme. Epithelia are then collected and treated with TrypLE (Life Technologies) for 15-20 minutes at 37° C. Single cells obtained by mechanical trituration are filtered (40 μm) and suspended in Matrigel (Corning) for 3D culture.
Cells are cultured in a 1:1 mixture of DMEM and F12, supplemented with Glutamax (GIBCO), N2, B27 (Invitrogen), EGF (50 ng/ml; Chemicon), bFGF (50 ng/ml; Chemicon), IGF1 (50 ng/ml; Chemicon) and the composition provided herein. Media are changed every other day.
Lgr5-positive cells are quantified after 10 days (D10) in culture in multiple conditions. Cell colonies are dissociated into single cells using TrypLE (Gibco). The cells are then stained with propidium iodide (PI) and are analyzed using a flow cytometer for Lgr5-GFP expression. The number of GFP-positive cells and the percentage of GFP-positive cells are quantified.

recombinant human GSK3α = recombinant human GSK3α (Homo sapiens, UniProt P49840); experiment: In vitro enzymatic assay for inhibition of GSK3α (Kinase-Glo Max luminescence); format: biochemical; conditions: 10 uM ATP, 0.1 mg/ml GSKtide, 30° C. 40 minutes, read-out: Potency Alpha
Description: (§1) Enzymatic activities using recombinant human GSK3 using an in vitro enzymatic assay for inhibition GSK3α and GSK3β.
(§2) The assay was performed using Kinase-Glo Max luminescence kinase assay kit (Promega). It measures kinase activity by quantitating the amount of ATP remaining in solution following a kinase reaction. The luminescent signal from the assay is correlated with the amount of ATP present and is inversely correlated with the amount of kinase activity. The compounds were diluted in 10% DMSO and 5 μl of the dilution was added to a 50 μl reaction so that the final concentration of DMSO is 1% in all of reactions. The enzymatic reactions were conducted at 30° C. for 40 minutes. The 50 μl reaction mixture contains 40 mM Tris, pH 7.4, 10 mM MgCl2, 0.1 mg/ml BSA, 2 mM DTT, 0.1 mg/ml GSKtide substrate, 10 uM ATP and GSK3. After the enzymatic reaction, 50 μl of Kinase-Glo Max Luminescence kinase assay solution (Promega) was added to each reaction and incubate the plate for 15 minutes at room temperature. Luminescence signal was measured using a BioTek Synergy 2 microplate reader.
(§3) Kinase activity assays were performed in duplicate at each concentration. The luminescence data were analyzed using the computer software, Graphpad Prism. The difference between luminescence intensities in the absence of Kinase (Lut) and in the presence of Kinase (Luc) was defined as 100% activity (Lut−Luc). Using luminescence signal (Lu) in the presence of the compound, % activity was calculated as: % activity={(Lut−Lu)/(Lut−Luc)}×100%, where Lu=the luminescence intensity in the presence of the compound (all percent activities below zero were shown zero in the table).
(§4) The values of % activity versus a series of compound concentrations were then plotted using non-linear regression analysis of Sigmoidal dose-response curve generated with the equation Y=B+(T−B)/1+10((Log EC50−X)×Hill Slope), where Y=percent activity, B=minimum percent activity, T=maximum percent activity, X=logarithm of compound and Hill Slope=slope factor or Hill coefficient. The IC50 value was determined by the concentration causing a half-maximal percent activity.

recombinant human GSK3β = recombinant human GSK3β (Homo sapiens, UniProt P49841); experiment: In vitro enzymatic assay for inhibition of GSK3β (Kinase-Glo Max luminescence); format: biochemical; conditions: 10 uM ATP, 0.1 mg/ml GSKtide, 30° C. 40 minutes, read-out: Potency Beta
Description: as §1, §2, §3, §4

Sequence of recombinant human GSK3β (P49841 whole entry): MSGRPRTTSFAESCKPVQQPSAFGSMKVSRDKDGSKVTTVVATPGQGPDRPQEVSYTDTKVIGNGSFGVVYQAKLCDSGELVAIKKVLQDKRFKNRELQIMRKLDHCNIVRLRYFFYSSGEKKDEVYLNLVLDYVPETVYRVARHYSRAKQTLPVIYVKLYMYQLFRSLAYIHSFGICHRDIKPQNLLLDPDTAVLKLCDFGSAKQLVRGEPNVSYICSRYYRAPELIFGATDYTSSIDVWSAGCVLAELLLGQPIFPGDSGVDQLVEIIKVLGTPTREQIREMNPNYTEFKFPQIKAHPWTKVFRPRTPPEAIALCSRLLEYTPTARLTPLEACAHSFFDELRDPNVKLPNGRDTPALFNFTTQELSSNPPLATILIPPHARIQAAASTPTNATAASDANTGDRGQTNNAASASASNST
Sequence of recombinant human GSK3α (P49840 whole entry): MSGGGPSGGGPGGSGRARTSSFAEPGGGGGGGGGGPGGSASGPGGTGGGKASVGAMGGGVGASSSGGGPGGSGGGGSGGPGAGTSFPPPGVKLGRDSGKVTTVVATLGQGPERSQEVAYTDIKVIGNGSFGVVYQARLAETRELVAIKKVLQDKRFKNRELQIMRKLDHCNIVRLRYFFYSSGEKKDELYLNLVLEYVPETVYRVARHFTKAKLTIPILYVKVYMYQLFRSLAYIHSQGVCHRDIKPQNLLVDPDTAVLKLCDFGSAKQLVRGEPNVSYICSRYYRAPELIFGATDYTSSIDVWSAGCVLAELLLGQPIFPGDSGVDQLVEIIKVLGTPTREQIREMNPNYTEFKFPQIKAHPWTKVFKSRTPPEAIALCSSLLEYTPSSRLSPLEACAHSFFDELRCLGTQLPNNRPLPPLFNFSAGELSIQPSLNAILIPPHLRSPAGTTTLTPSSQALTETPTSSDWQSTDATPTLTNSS

| SMILES | EC50 (Lgr5-positive cells) [nM] | % of Cells (Lgr5-positive cells) | IC50 (recombinant human GSK3α) [nM] | IC50 (recombinant human GSK3β) [nM] |
| --- | --- | --- | --- | --- |
| N#Cc1cc2c3c(c1)c(C1=C(c4cnc5ccccn45)C(=O)NC1=O)cn3CCN(C(=O)N1CCCC(F)(F)C1)C2 [Compound I-15] | > 1000 | ++ (“++” indicates about 6-10%) | 1 to 10 | 1 to 10 |
| O=C1NC(=O)C(c2cnc3ccccn23)=C1c1cn2c3c(cc(F)c(F)c13)CN(C(=O)N1CCCCC1)CC2 [Compound I-48] | 1 to 100 | ++ (“++” indicates about 6-10%) | 1 to 10 | 1 to 10 |
| O=C1NC(=O)C(c2cnc3ccccn23)=C1c1cn2c3c(cc(F)cc13)CN(C(=O)NCC1CCNCC1)CC2 [Compound I-37] | > 1000 | + (“+” indicates about 0-5%) | 1 to 10 | 1 to 10 |
| N#Cc1cc2c3c(c1)c(C1=C(c4cnc5ccccn45)C(=O)NC1=O)cn3CCN(C(=O)N1CC3CCC(C1)O3)C2 [Compound I-14] | > 1000 | + (“+” indicates about 0-5%) | 1 to 10 | 1 to 10 |
| CNCC1CCN(C(=O)N2CCn3cc(C4=C(c5cnc6ccccn56)C(=O)NC4=O)c4cc(F)cc(c43)C2)CC1 [Compound I-32] | > 1000 | +++ (“+++” indicates greater than about 11%) | 1 to 10 | 1 to 10 |
| O=C1NC(=O)C(c2cnc3ccccn23)=C1c1cn2c3c(cc(C(F)(F)F)cc13)CN(C(=O)N1CCOCC(F)(F)C1)CC2 [Compound I-44] | 100 to 1000 | +++ (“+++” indicates greater than about 11%) | 1 to 10 | 1 to 10 |
| N#Cc1cc2c3c(c1)c(C1=C(c4cnc5ccccn45)C(=O)NC1=O)cn3CCN(C(=O)N1CCCCC1)C2 [Compound I-2] | 1 to 100 | +++ (“+++” indicates greater than about 11%) | 1 to 10 | 1 to 10 |
| O=C1NC(=O)C(c2cnc3ccccn23)=C1c1cn2c3c(cc(F)cc13)CN(C(=O)N1CC3CCC(C1)O3)CC2 [Compound I-8] | 1 to 100 | +++ (“+++” indicates greater than about 11%) | 1 to 10 | 1 to 10 |
| CN(CC1CCNCC1)C(=O)N1CCn2cc(C3=C(c4cnc5ccccn45)C(=O)NC3=O)c3cc(F)cc(c32)C1 [Compound I-38] | > 1000 | + (“+” indicates about 0-5%) | 1 to 10 | 1 to 10 |
| CN1CC2CC1CN2C(=O)N1CCn2cc(C3=C(c4cnc5ccccn45)C(=O)NC3=O)c3cc(F)cc(c32)C1 (stereo not drawn) [Compound I-40] | > 1000 | + (“+” indicates about 0-5%) | 1 to 10 | 1 to 10 |
| CN1CCC2(CCN(C(=O)N3CCn4cc(C5=C(c6cnc7ccccn67)C(=O)NC5=O)c5cc(F)cc(c54)C3)CC2)C1 [Compound I-41] | > 1000 | +++ (“+++” indicates greater than about 11%) | 1 to 10 | 1 to 10 |
| O=C1NC(=O)C(c2cnc3ccccn23)=C1c1cn2c3c(cc(F)cc13)CN(C(=O)N1CCC(CO)CC1)CC2 [Compound I-6] | 1 to 100 | +++ (“+++” indicates greater than about 11%) | 1 to 10 | 1 to 10 |

From patent US11066419B2, “1H-pyrrole-2,5-dione compounds and methods of using same” (Frequency Therapeutics, Inc., priority 2016, dated 2021)
